This passage reports EC50 and Activity results from ChEMBL document CHEMBL1140804, “Design, synthesis and evaluation of trifluoromethane sulfonamide derivatives as new potent and selective peroxisome proliferator-activated receptor alpha agonists” (Bioorg Med Chem Lett, 2008).

Assay [1] deals with T1, Peroxisome proliferator-activated receptor alpha (Homo sapiens, UniProt Q07869).
T1 sequence (Q07869 whole entry): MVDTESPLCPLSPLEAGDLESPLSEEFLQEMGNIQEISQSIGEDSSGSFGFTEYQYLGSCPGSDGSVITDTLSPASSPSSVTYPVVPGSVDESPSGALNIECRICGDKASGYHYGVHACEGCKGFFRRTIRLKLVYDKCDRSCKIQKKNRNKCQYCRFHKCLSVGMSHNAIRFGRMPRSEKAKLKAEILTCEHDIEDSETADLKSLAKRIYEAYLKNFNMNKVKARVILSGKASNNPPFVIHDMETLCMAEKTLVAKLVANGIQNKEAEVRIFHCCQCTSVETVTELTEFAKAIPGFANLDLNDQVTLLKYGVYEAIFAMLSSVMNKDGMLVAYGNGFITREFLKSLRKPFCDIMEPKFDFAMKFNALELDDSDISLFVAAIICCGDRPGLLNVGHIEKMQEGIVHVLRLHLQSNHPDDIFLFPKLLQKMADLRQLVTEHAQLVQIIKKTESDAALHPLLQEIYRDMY
Description: Agonist activity at human PPARalpha assessed as receptor activation by cell based assay

The target in assay [2] is T2, Peroxisome proliferator-activated receptor alpha (Mus musculus, UniProt P23204).
T2 sequence (P23204 whole entry): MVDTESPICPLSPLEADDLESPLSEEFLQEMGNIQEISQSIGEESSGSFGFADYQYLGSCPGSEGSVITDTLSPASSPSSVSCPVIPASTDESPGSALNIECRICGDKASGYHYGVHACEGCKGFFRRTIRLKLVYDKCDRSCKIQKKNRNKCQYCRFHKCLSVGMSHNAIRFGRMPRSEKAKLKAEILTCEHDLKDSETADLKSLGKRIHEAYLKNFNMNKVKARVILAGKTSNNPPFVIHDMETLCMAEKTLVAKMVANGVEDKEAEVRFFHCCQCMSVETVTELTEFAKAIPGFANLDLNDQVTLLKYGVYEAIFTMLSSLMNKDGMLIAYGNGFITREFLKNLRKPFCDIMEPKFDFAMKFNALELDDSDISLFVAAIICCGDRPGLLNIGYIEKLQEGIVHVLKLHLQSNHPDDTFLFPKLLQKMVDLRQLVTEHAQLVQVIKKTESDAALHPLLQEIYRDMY
Description: (§1) Agonist activity at mouse PPARalpha assessed as receptor activation by cell based assay

Assay [3] addresses T3, Peroxisome proliferator-activated receptor delta (Homo sapiens, UniProt Q03181).
T3 sequence (Q03181 whole entry): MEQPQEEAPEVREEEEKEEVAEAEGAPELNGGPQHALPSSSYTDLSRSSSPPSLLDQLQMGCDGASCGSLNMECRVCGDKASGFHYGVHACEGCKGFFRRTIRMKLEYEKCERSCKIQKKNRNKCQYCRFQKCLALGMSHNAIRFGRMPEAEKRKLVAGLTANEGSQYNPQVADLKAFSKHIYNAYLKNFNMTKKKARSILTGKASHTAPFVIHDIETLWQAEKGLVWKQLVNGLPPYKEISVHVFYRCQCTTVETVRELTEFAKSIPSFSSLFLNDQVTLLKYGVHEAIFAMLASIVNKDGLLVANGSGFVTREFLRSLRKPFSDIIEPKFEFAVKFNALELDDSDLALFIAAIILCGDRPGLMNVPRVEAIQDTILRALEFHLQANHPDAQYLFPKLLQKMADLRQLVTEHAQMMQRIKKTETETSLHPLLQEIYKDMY
Description: Agonist activity at human PPARdelta assessed as receptor activation by cell based assay

Assay [4] deals with T4, Peroxisome proliferator-activated receptor delta (Mus musculus, UniProt P35396).
T4 sequence (P35396 whole entry): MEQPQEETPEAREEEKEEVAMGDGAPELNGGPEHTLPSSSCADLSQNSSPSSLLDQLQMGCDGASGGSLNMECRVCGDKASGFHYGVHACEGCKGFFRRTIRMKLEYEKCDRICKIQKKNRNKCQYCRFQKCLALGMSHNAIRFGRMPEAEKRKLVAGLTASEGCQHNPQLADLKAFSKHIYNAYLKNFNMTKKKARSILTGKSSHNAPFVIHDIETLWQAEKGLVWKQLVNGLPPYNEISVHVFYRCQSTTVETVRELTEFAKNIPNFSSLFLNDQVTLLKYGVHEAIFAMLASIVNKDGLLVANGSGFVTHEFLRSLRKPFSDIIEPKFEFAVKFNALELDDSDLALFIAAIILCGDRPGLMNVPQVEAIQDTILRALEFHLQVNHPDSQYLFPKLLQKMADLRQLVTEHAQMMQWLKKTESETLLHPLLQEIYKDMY
Description: Agonist activity at mouse PPARdelta assessed as receptor activation by cell based assay

Assay [5] addresses T5, Peroxisome proliferator-activated receptor gamma (Homo sapiens, UniProt P37231).
T5 sequence (P37231 whole entry): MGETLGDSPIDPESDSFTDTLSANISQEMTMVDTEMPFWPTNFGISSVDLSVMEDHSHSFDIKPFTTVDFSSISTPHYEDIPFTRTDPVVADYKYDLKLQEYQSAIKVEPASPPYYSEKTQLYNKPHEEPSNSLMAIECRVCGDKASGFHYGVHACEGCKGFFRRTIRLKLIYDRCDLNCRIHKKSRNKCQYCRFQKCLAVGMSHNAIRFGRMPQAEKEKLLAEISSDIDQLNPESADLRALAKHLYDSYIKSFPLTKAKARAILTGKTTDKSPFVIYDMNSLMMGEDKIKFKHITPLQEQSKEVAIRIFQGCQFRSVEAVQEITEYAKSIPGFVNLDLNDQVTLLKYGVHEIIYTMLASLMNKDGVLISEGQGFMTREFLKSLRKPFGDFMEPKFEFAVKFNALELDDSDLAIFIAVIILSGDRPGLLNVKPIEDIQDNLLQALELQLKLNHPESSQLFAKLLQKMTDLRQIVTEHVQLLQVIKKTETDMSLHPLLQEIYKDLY
Description: Agonist activity at human PPARgamma assessed as receptor activation by cell based assay

Assay [6] has as its target T6, Peroxisome proliferator-activated receptor gamma (Mus musculus, UniProt P37238).
T6 sequence (P37238 whole entry): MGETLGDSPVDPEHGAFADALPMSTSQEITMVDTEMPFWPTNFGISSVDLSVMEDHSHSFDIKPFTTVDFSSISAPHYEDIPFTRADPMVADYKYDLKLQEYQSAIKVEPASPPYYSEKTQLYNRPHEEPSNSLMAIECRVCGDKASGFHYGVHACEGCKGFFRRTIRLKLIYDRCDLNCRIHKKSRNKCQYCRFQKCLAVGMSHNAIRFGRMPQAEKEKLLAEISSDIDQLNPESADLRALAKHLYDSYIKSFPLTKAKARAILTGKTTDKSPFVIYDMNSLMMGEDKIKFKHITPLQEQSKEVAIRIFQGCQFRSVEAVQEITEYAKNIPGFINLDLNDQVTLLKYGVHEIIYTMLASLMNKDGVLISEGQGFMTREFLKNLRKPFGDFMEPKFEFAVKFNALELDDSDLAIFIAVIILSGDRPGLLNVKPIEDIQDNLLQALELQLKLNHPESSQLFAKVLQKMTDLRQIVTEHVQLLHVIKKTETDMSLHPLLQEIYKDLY
Description: Agonist activity at mouse PPARgamma assessed as receptor activation by cell based assay

The target in assay [7] is T7, Peroxisome proliferator-activated receptor alpha (Mus musculus) (UniProt P23204).
T7 sequence (whole entry): T2 sequence (P23204 whole entry)
Description: as §1

On to `Cc1nc(-c2ccc(C(F)(F)F)cc2)sc1C(=O)NCc1ccc(-c2c(O)c(=O)c2=O)cc1`, for which the EC50 – broadly, the concentration giving half of the maximal effect – is over 10000 nM in assay [1]; over 10000 nM in assay [2]; over 10 µM in assay [3]; over 10 µM in assay [4]; over 10 µM in assay [5]; over 10 µM in assay [6].
For `Cc1nc(-c2ccc(C(F)(F)F)cc2)sc1C(=O)NCc1ccc(NS(C)(=O)=O)cc1`, the EC50 in assay [1] is 60 nM; in assay [2] it was 800 nM; in assay [3] it was over 10 µM; in assay [4] it was over 10 µM; in assay [5], over 10 µM; in assay [6], over 10 µM. Further, the Activity in assay [7] came to 78%.
Turning to `Cc1nc(-c2ccc(C(F)(F)F)cc2)sc1C(=O)NCc1ccc(NC(=O)C(F)(F)F)cc1`, the EC50 is 450 nM in assay [1]; over 10000 nM in assay [2]; over 10 µM in assay [3]; over 10 µM in assay [4]; over 10 µM in assay [5]; over 10 µM in assay [6].
On to `CCCCS(=O)(=O)Nc1ccc(CNC(=O)c2sc(-c3ccc(C(F)(F)F)cc3)nc2C)cc1`, for which the EC50 in assay [1] was 320 nM; in assay [2], over 10000 nM; in assay [3], over 10 µM; in assay [4], over 10 µM; in assay [5] it was 5.5 µM; in assay [6], 6.7 µM.
Take `COCc1nc(-c2ccc(C(=O)NCc3ccc(OC(C)(C)C(=O)O)cc3)cc2)no1`: the EC50 in assay [1] was 3000 nM; in assay [2], over 25000 nM.
With `N#Cc1ccc(-c2ccc(C(=O)NCc3ccc(NS(=O)(=O)C(F)(F)F)cc3)cc2)cc1`, the EC50 in assay [1] turned out to be 20 nM; in assay [2], 200 nM. The Activity in assay [7] worked out at 152%.
The corresponding values for `COc1ccc2sc(C(=O)NCc3ccc(NS(=O)(=O)C(F)(F)F)cc3)cc2c1` are 80 nM, 130 nM and 132%.
With `Cc1nc(-c2ccc(C(F)(F)F)cc2)sc1C(=O)NCc1ccc(OC(C)(C)C(=O)O)cc1` [GW590735], the EC50 in assay [2] worked out at 20 nM; in assay [4] it was 1.7 µM; in assay [5], 9.7 µM; in assay [6], 9.7 µM. Besides, the Activity in assay [7] turned out to be 103%.
As to `COc1ccc2sc(C(=O)NCc3ccc(OC(C)(C)C(=O)O)cc3)cc2c1`, the concentration for a half-maximal effect (EC50) is 6000 nM in assay [1] and over 25000 nM in assay [2].
Consider `CC(C)(Oc1ccc(CNC(=O)c2ccc(-c3ccc(Cl)cc3)cc2)cc1)C(=O)O`, for which the EC50 in assay [1] is 70 nM; in assay [2], 1000 nM. Moreover, in assay [7], the Activity is 130%.
For the compound `Cc1nc(-c2ccc(C(F)(F)F)cc2)sc1C(=O)NCc1ccc(CNS(=O)(=O)C(F)(F)F)cc1`, the EC50 in assay [1] was 80 nM; in assay [2], over 10000 nM; in assay [3] it was over 10 µM; in assay [4] it was over 10 µM; in assay [5], over 10 µM; in assay [6], over 10 µM.
As for `COCc1nc(-c2ccc(C(=O)NCc3ccc(NS(=O)(=O)C(F)(F)F)cc3)cc2)no1`, the results for the EC50 in assay [1] and in assay [2] were 360 nM and 700 nM, respectively. The same compound had an Activity in assay [7] of 116%.
Regarding `Cc1nc(-c2ccc(C(F)(F)F)cc2)sc1C(=O)NCc1ccc(OCc2nn[nH]n2)cc1`, the EC50 in assay [1] is over 10000 nM; in assay [2], over 10000 nM; in assay [3], over 10 µM; in assay [4] it was over 10 µM; in assay [5], over 10 µM; in assay [6], over 10 µM.
With `Cc1ccc(S(=O)(=O)Nc2ccc(CNC(=O)c3sc(-c4ccc(C(F)(F)F)cc4)nc3C)cc2)cc1`, the EC50 in assay [1] was 1000 nM; in assay [2] it was over 10000 nM; in assay [3], over 10 µM; in assay [4], over 10 µM; in assay [5], over 10 µM; in assay [6] it was over 10 µM.
In the case of `O=C(Cc1ccc(-c2ccc(Cl)cc2)cc1)NCc1ccc(NS(=O)(=O)C(F)(F)F)cc1`, the concentration for a half-maximal effect (EC50) in assay [1] was 80 nM; in assay [2], 340 nM. Moreover, in assay [7], the Activity stood at 0.34%.
Turning to `Cc1nc(-c2ccc(C(F)(F)F)cc2)sc1C(=O)NCc1ccc(NS(=O)(=O)C(C)C)cc1`, the EC50 is 50 nM in assay [1]; over 10000 nM in assay [2]; over 10 µM in assay [3]; over 10 µM in assay [4]; over 10 µM in assay [5]; over 10 µM in assay [6].
For the compound `CC(C)(Oc1ccc(CNC(=O)Cc2ccc(-c3ccc(Cl)cc3)cc2)cc1)C(=O)O`, the EC50 was 2800 nM in assay [1] and over 25000 nM in assay [2].
The like results for `CC(C)(Oc1ccc(CNC(=O)c2ccc(-c3ccc(C#N)cc3)cc2)cc1)C(=O)O` were, in that order, 1000 nM and over 25000 nM.
As for `Cc1csc(-c2ccc(C(=O)NCc3ccc(NS(=O)(=O)C(F)(F)F)cc3)cc2)n1`, the EC50 in assay [1] was found to be 60 nM; in assay [2] it was 80 nM. For the same compound, the Activity in assay [7] was determined as 96%.
As for `Cc1csc(-c2ccc(C(=O)NCc3ccc(OC(C)(C)C(=O)O)cc3)cc2)n1`, the results for the EC50 in assay [1] and in assay [2] were 5000 nM and over 25000 nM, respectively.
Regarding `Cc1nc(-c2ccc(C(F)(F)F)cc2)sc1C(=O)NCc1ccc(OC(C)(C)C(=O)NS(=O)(=O)C(F)(F)F)cc1`, the EC50 in assay [1] is over 10000 nM; in assay [2], over 10000 nM; in assay [3] it was over 10 µM; in assay [4], over 10 µM; in assay [5], over 10 µM; in assay [6], over 10 µM.
